Source: ChEMBL document CHEMBL3400119, “Triazole-containing N-acyl homoserine lactones targeting the quorum sensing system in Pseudomonas aeruginosa” (Bioorg Med Chem, 2015)
The source made the active and inactive calls. No cut-off for these calls is given here.

Assays:
Pseudomonas aeruginosa = assay: (§1) Antagonist activity at rhlA in Pseudomonas aeruginosa harboring rhlA-gfp gene assessed as inhibition of […]-induced quorum sensing by green fluorescence protein reporter assay
[1] = Antagonist activity at luxI in Escherichia coli harboring luxI-gfp gene assessed as inhibition of 3-oxo-C6-HSL-induced quorum sensing by green fluorescence protein reporter assay
[2] = Agonist activity at lasB in Escherichia coli harboring lasB-gfp gene by green fluorescence protein reporter assay
[3] = as §1
[4] = target: Elastase (Pseudomonas aeruginosa (strain ATCC 15692 / PAO1 / 1C / PRS 101 / LMG12228)) (UniProt P14756); assay: Antagonist activity at lasB in Pseudomonas aeruginosa harboring lasB-gfp gene assessed as inhibition of […]-induced quorum sensing by green fluorescence protein reporter assay
Sequence of Elastase (Pseudomonas aeruginosa (strain ATCC 15692 / PAO1 / 1C / PRS 101 / LMG12228)) (P14756 198-498 limits assumed): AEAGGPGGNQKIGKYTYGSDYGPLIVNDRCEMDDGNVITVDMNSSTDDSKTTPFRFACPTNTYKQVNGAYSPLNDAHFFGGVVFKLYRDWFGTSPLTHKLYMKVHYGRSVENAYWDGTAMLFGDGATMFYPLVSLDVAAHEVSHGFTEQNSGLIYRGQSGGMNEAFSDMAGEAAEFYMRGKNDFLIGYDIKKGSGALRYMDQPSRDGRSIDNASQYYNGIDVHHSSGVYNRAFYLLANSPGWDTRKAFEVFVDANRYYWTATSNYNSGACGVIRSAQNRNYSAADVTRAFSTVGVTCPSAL

SMILES	inhibition (Pseudomonas aeruginosa)	IC50 [1] [µM]	EC50 [2] [µM]	IC50 [3] [µM]	inhibition [4]
O=Cc1cccc(-n2cc(CCC(=O)N[C@H]3CCOC3=O)nn2)c1	inactive	5	71		
O=C(Cn1cc(-c2ccsc2)nn1)N[C@H]1CCOC1=O		55		1030	
[N-]=[N+]=Nc1ccc(C(=O)N[C@H]2CCOC2=O)cc1	inactive	244			
O=C(Cn1cc(C2CCCC2)nn1)N[C@H]1CCOC1=O		50	3	898	
O=C(Cn1cc(C2CCCCC2)nn1)N[C@H]1CCOC1=O	inactive	342	44		
CCCCCc1cn(CC(=O)N[C@H]2CCOC2=O)nn1			1		
O=C(Cn1cc(C2CC2)nn1)N[C@H]1CCOC1=O		88		799	
O=C(Cn1cc(CC2CCCCC2)nn1)N[C@H]1CCOC1=O			8		
CCCCCCc1cn(CC(=O)N[C@H]2CCOC2=O)nn1	inactive	578	12		
CCCc1cn(CC(=O)N[C@H]2CCOC2=O)nn1		71		927	
O=C(Cn1cc(CSc2ccccc2)nn1)N[C@H]1CCOC1=O	inactive	602	2		
CCCCc1cn(CC(=O)N[C@H]2CCOC2=O)nn1	inactive	751	57		inactive
[N-]=[N+]=Nc1cccc(C(=O)N[C@H]2CCOC2=O)c1	inactive	223			inactive
Nc1cccc(-n2cc(CCC(=O)N[C@H]3CCOC3=O)nn2)c1			2		
O=C(Cn1cc(-c2ccccc2)nn1)N[C@H]1CCOC1=O	inactive	192			inactive
Nc1ccc(-n2cc(-c3ccc(C(=O)N[C@H]4CCOC4=O)cc3)nn2)cc1	inactive	95			inactive
